Test results: patent US10166239B2, “Tropomyosin-related kinase (Trk) inhibitors” (Genzyme Corporation, priority 2013, dated 2019)

Experiments:
[1] = tested on: Reactivated Peptidoglycan-Polysaccharide Knee Arthritis; test: Reactivated peptidoglycan-polysaccharide (PGPS) knee arthritis; format: in vivo, Male Lewis rats; conditions: for gait scores, second reactivation: intra-articular dose on day −7 (Triamcinolone 0.06 mg: day 15, 17, 18; test compound 1 mg: throughout second reactivation); for gait deficiency, second reactivation / gait scores and deficiency, first reactivation: intra-articular dose on day −7 (Triamcinolone 0.06 mg; test compound 1 mg); for gait deficiency, second reactivation: days 15, 17 and 18; for gait scores and deficiency, first reactivation: first reactivation (days 1-4)
Description: Male Lewis rats were acclimated to the testing facility for 7 days. The rats were housed in 5 per cage in shoe-box polycarbonate cages with wire tops, wood chip bedding and suspended food and water bottles. On day −21, the male Lewis rats were randomized into treatment groups by body weight. The rats were anesthetized and injected with peptidoglycan-polysaccharide (PGPS) into the right knee to induce PGPS arthritis. Arthritis was reactivated on days 0 and 14 by an IV tail injection of PGPS. […] The rats were weighed at baseline on days 0, 4, 14 and 18. […] Gait analysis was performed by applying ink to the ventral surface of the foot and documenting weight bearing during movement across paper. The animals were terminated at day 18. Right knees were removed, trimmed of extraneous tissue, and collected into 10% neutral buffered formalin. After two days in the formalin buffer and three days in 10% formic acid decalcifier, the knees were cut into two approximately equal halves in the frontal plane and processed for paraffin embedding and stained with T. Blue. Histological examinations were subsequently performed for bone resorption, inflammation, pannus and cartilage damage. […] Gait scores were analyzed using a Kruskal-Wallis test (non-parametric ANOVA) with Dunn's multiple comparison post-test. Histopathology scores were analyzed using a Kruskal-Wallis test (non-parametric ANOVA) with Dunn's multiple comparison post-test.

[2] = tested on: Monosodium Iodoacetate Induced Osteoarthritis; test: Monosodium iodoacetate (MIA) induced osteoarthritis; format: in vivo, Male Wistar rats
Description: Male Wistar rats were acclimated to the testing facility for 5 days. The rats were individually housed in micro-isolator shoe-box polycarbonate cages with cob bedding and water bottles. Dry pelleted food of known composition and nutritional components was provided ad libitum Animals were randomized by treatment type using an online random number generator. Each treatment group was assigned a number, entered into the random number generator, recorded then translated back to the associated treatment. All injections were given in the left leg unless the treatment indicated “Contralateral” in which case the injection was given in the right leg. Both legs were shaved on all animals at the time of the treatment injections to blind the test administrator. The rats were weighed the day prior to injection with monosodium iodoacetate (MIA), the agent used to induce osteoarthritis in the animals. The day of injection, rats from groups 2-8 received a subcutaneous (SC) dose of buprenorphine at least one hour prior to induction. […] Naïve animals were then placed in recovery. All other animals received an injection of MIA. In animals receiving MIA, the hind leg was flexed and an injection of MIA (25 μL) was injected into the intra-articular space using a 27 gauge ½ inch needle. Standard postoperative care was performed (twice daily for 48 hours). On Day 8 the test article was administered as described above. On Days −1, 7, 14, 21, 28, and 35 post-induction, weight bearing was assessed. A weight bearing scale was utilized using a plexiglass chamber to assess the amount of weight distributed in each hind limb. The animals were acclimated to the chamber for at least 5 minutes prior to testing and the weight distribution was recorded 5 times. The animals were terminated at day 36. Both stifles were collected from each animal; the skin was removed from the joint and the patella was removed while leaving as much of the fat pad intact with the joint. The stifle was placed in the appropriate cassette with rolled gauze to secure the stifle in the cassette and then placed into 4% Paraformaldehyde. These samples were examined histologically.

[3] = Triamcinolone 0.06 mg intra-articular

Structure (SMILES)	AUC values of knee caliper measurements ([1]; 1 mg intra-articular)	reduction of AUC values of gait scores and deficiency, first reactivation ([1]; 1 mg intra-articular)	reduction of AUC values of gait scores and deficiency, second reactivation ([1]; 1 mg intra-articular)	Knee caliper measurements ([1]; 1 mg intra-articular, day 14 (just prior to the second reactivation))	gait scores, second reactivation [1]	gait deficiency, second reactivation [1]	gait scores and deficiency, first reactivation [1]	efficacy (weight bearing) ([2]; 10 μg Contralateral injection)	efficacy (weight bearing) ([2]; 10 μg Ipsilateral injection)	efficacy (weight bearing) ([2]; 30 μg Contralateral injection)	efficacy (weight bearing) ([2]; 30 μg Ipsilateral injection)	systemic pain relief (weight bearing) ([2]; 100 μg Contralateral injection, 1-4 weeks)	efficacy (weight bearing) ([2]; 100 μg Ipsilateral injection)	MIA/LRS compared with treatment (p<0.05) ([2]; Ipsilateral 100 μg and 30 μg, day 35)	body weight results ([2]; intra-articular 10, 30, 100 μg on Day 8)	Histopathology of the knee joint, adverse changes ([2]; stifles collected at day 36)	reduction of AUC values of gait scores and deficiency, each reactivation calculated separately [1, 3]	reduction of AUC values of gait scores and deficiency, summed [1, 3]	reductions in the AUC of knee caliper measurements [1, 3]	Knee caliper measurements ([1]; Triamcinolone 0.06 mg intra-articular, days 0, 2, 4, 16 and 18)
COc1ccc(COc2ccc(Cn3c(N)nc4cc(-c5cnn(C)c5)cnc43)cc2OC)cc1 [Ex. 3-15, 3-(3-Methoxy-4-((4-methoxybenzyl)oxy)benzyl)-6-(1-methyl-1H-pyrazol-4-yl)-3H-imidazo[4,5-b]pyridin-2-amine]	generally unaffected	92-93%	85-86%	significantly reduced on day 14	significantly reduced throughout the second reactivation	reductions in deficiency were significant	significant reductions	efficacy at 3 and 4 weeks following administration	efficacy was observed at 2 through 4 weeks following administration	efficacy at only the 3 week timepoint	effective throughout the four weeks following administration	did not show systemic pain relief at any timepoint	effective throughout the four weeks following administration	MIA/LRS was significantly worse	No adverse observations	no adverse changes				
C[C@]12C=CC(=O)C=C1CC[C@H]1[C@@H]3C[C@@H](O)[C@](O)(C(=O)CO)[C@@]3(C)C[C@H](O)[C@@]12F [Triamcinolone, reference compound]					significantly reduced	significantly reduced	significantly reduced										74-99%	88-92%	53-106%	significantly reduced
